Marks after values point to notes of the source that are not given here.
Legend:
Bonding to timber = format: physicochemical; details: compared with Permethrin
From the text: (§1) These two attributes of bonding & water insolubility, together with the abovementioned stability when exposed to temperature and UV result in the chemical staying on the timber when exposed to rain, sunlight, temperature or handling. No other chemicals used in the past have such characteristics which would allow a mere superficial treatment.

[1] = tested on: Coptotermes acinaciformis; assay: Timber protection using standard practice in the timber industry; format: in vivo
From the text: (§2) The rates are 5 and 20 g/m3 respectively.

Mastotermes darwiniensis [2] = assay: as above; format: in vivo
From the text: as §2

Mastotermes darwiniensis [3] = assay: Field drum test (AWPA protocols), treated radiata pine exposed to termites; format: in vivo; parameters: Mean score: scale not given here; details: for Mean score / Pass or Fail: radiata pine, field
Protocol: (§3) The rates required to achieve protection are 4 and 23 g/m3 applied on the surface of 35×90 mm radiata pine for Coptotermes acinaciformis and Mastotermes darwiniensis respectively. These studies were conducted using the drum test described by the AWPA protocols.

[4] = tested on: Coptotermes acinaciformis; assay: as above; format: in vivo; parameters: key to Mean rating: 1: Sound; 2: Superficial attack-grazing; Penetration - >3 mm in depth; 4: Attack Slight −10-25% mass loss; Attack Moderate 25-50% mass loss; 6: Attack Severe 50-70% mass loss; Attack Destroyed 75-100% mass loss; details: for Mean rating / Success (Pass or Fail) / Pass or Fail: radiata pine, field
Protocol: as §3
Additives can be incorporated during the application of bifenthrin, for example colors, fire retardants, water repellents and resins.
A modification of superficial treatments is the partial introduction of bifenthrin into the wood. The result of this is an envelope around the cross section of the timber board or wood product or just a partial penetration.

[5] = Degradation on exposure to temperature and UV light; format: physicochemical
From the text: (§4) Until this invention, adequately protecting timber against termite attack required a treatment which provided significant penetration of the sapwood. This was the case due to the fact that other available active ingredients degraded very quickly when exposed to increased temperature and Ultra Violet (UV) light. The penetration was required to protect the active ingredient (“active”) from the degradation. The most common used active in the 1990's which penetrated the timber was Permethrin. […] Thus, when using Permethrin, it was required to penetrate into the timber otherwise the product would degrade and not protect the timber. […] This problem was so severe that it made the use of Deltamethin unviable.
(§5) This increased stability together with the repellent effects of Bifenthrin combined to allow only a superficial treating of the timber where the need for significant penetration is not required.

Solubility in water = format: physicochemical
From the text: as §1

termites = assay: Simulated house frames exposed to 120,000 termites; format: in vivo; details: superficial treatment, ends not treated; six months of exposure, 120,000 termites
From the text: The ends of the samples were not treated. Simulated frames were exposed to 120,000 termites.

[6] = tested on: workers who handled the treated timber; assay: OH&S testing, handling of treated timber; format: in vivo
From the text: as §4, §5

[7] = 15 g/m^3, superficial treatment
[8] = 23 g/m^3, superficial treatment
[9] = 38 g/m^3, superficial treatment
[10] = applied on the surface of 35×90 mm radiata pine (dipping or spraying)
[11] = 4 g/m^3 + water repellents, superficial treatment
[12] = 8 g/m^3 + water repellents, superficial treatment
[13] = 15 g/m^3 + water repellents, superficial treatment
[14] = 23 g/m^3 + water repellents, superficial treatment
[15] = Partial penetration more than 3 mm, 6-12 g/m^3
[16] = Partial penetration more than 3 mm, 13-20 g/m^3

Cc1c(COC(=O)[C@@H]2[C@H](/C=C(\Cl)C(F)(F)F)C2(C)C)cccc1-c1ccccc1 (racemic) [Bifenthrin]
Bonding co-efficient (Bonding to timber): significantly greater than that of Permethrin | Rate required to protect timber [1]: 5 g/m3 | Rate required to protect timber (Mastotermes darwiniensis [2]): 20 g/m3 | Mean score (Mastotermes darwiniensis [3]; 4 g/m^3, superficial treatment): 3.3 | Pass or Fail (Mastotermes darwiniensis [3]; 4 g/m^3, superficial treatment): Fail | Mean score (Mastotermes darwiniensis [3]; 8 g/m^3, superficial treatment): 2.2 | Pass or Fail (Mastotermes darwiniensis [3]; 8 g/m^3, superficial treatment): Fail | Mean score (Mastotermes darwiniensis [3]; [7]): 2.0 | Pass or Fail (Mastotermes darwiniensis [3]; [7]): Fail | Mean score (Mastotermes darwiniensis [3]; [8]): 1.7 | Pass or Fail (Mastotermes darwiniensis [3]; [8]): Pass | Mean score (Mastotermes darwiniensis [3]; [9]): 1.0 | Pass or Fail (Mastotermes darwiniensis [3]; [9]): Pass | Rate required to achieve protection (Mastotermes darwiniensis [3]; [10]): 23 g/m3 | Mean rating [4, 11]: 1.2 | Success (Pass or Fail) [4, 11]: Pass | Mean rating [4, 12]: 1.3 | Success (Pass or Fail) [4, 12]: Pass | Mean rating [4, 13]: 1.2^b | Success (Pass or Fail) [4, 13]: Pass | Mean rating [4, 14]: 1.2 | Success (Pass or Fail) [4, 14]: Pass | Mean rating [4, 15]: 1.0 | Success (Pass or Fail) [4, 15]: Pass | Mean rating [4, 16]: 1.0 | Success (Pass or Fail) [4, 16]: Pass | Repellent effect with added water repellents ([4]; addition of water repellents): did not mask the repellent effect | Rate required to achieve protection [4, 10]: 4 g/m3 | Degradation through exposure to UV or heat ([5]; superficially treated timber): significant penetration was not required to protect the active against degradation | Solubility in water (Solubility in water): virtually insoluble in water | Attack of simulated frames (termites): the treated frames were not | Skin irritation / parasthesia on exposure to treated timber [6]: does not produce any skin irritation

CC1(C)[C@H](C(=O)O[C@H](C#N)c2cccc(Oc3ccccc3)c2)[C@@H]1C=C(Br)Br [Deltamethrin]
Resistance to UV light [5]: degrade rapidly when exposed to UV light | Skin irritation / parasthesia on exposure to treated timber [6]: all workers who handled the treated timber complained of a parasthesia or skin irritation

CC1(C)C(C=C(Cl)Cl)C1C(=O)OCc1cccc(Oc2ccccc2)c1 (stereo not drawn) [permethrin, Permethrin]
Mean score (Mastotermes darwiniensis [3]; 0.02% m/m permethrin (LOSP)): 1.8 | Pass or Fail (Mastotermes darwiniensis [3]; 0.02% m/m permethrin (LOSP)): Pass | Mean score (Mastotermes darwiniensis [3]; .007% m/m permethrin (LOSP)): 2.2 | Pass or Fail (Mastotermes darwiniensis [3]; .007% m/m permethrin (LOSP)): Fail | Mean score (Mastotermes darwiniensis [3]; .013% m/m permethrin (LOSP)): 2.2 | Pass or Fail (Mastotermes darwiniensis [3]; .013% m/m permethrin (LOSP)): Fail | Mean rating ([4]; 0.007% m/m OD permethrin): 2 | Pass or Fail ([4]; 0.007% m/m OD permethrin): Fail | Mean rating ([4]; 0.013% m/m OD permethrin): 1.8 | Pass or Fail ([4]; 0.013% m/m OD permethrin): Fail | Mean rating ([4]; 0.02% m/m OD permethrin): 1.3 | Pass or Fail ([4]; 0.02% m/m OD permethrin): Pass | Resistance to UV light [5]: very low resistance to UV light | Degradation on exposure to temperature ([5]; heat): degrade when exposed to temperatures above 25 degrees centigrade

— patent publication US20060127432A1, “Surface treatment for wood and wood products” (priority 2002, published 2006)
